Laboratory results: patent US9376442B2, “Methylpyrrolopyrimidinecarboxamides” (Takeda GmbH, priority 2009, dated 2016)

Key:
PDE4B1 = target: T1, PDE4B1 (Homo sapiens, UniProt Q07343); test: Inhibition of type 4 phosphodiesterase (PDE4) activity, modified SPA test with recombinant PDE4B1 expressed in SF21 insect cells; type: biochemical; conditions: recombinant PDE4B1, 0.5 μM cAMP, read-out: PDE4B1 inhibitory values [measured as −log IC50 (mol/l)] (converted)
T1 construct: made in house; host or cells: SF21 insect cells (baculovirus; pCRBac vector), 1000 x g supernatant of homogenate
T1 sequence (Q07343 whole entry): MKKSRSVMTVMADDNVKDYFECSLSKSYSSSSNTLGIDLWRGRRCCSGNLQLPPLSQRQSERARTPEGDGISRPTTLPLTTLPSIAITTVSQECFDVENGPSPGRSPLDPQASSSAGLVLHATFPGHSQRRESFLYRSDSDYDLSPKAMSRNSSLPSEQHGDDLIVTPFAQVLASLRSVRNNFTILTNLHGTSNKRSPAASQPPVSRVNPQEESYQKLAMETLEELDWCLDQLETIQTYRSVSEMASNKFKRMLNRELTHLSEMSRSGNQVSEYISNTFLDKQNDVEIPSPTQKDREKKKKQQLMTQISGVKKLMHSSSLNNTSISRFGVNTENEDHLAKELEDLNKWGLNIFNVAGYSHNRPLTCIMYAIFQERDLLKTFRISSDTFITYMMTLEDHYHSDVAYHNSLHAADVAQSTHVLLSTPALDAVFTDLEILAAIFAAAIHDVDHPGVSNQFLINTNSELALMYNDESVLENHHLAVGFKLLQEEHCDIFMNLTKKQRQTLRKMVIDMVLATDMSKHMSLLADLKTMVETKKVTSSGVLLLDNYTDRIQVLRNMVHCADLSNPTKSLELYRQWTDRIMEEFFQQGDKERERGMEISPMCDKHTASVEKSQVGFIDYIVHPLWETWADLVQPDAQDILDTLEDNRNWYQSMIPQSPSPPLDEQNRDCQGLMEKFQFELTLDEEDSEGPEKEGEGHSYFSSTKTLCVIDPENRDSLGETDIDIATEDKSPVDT
Method in brief: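 Modified [3H]cAMP SPA using 1000×g supernatant of SF21 cells expressing recombinant human PDE4B1, in 20 mM Tris pH 7.4, 0.1 mg/ml BSA, 5 mM Mg2+, 0.5 μM cAMP. After 5 min preincubation at 37 °C, 15 min reaction, stopped with SPA beads plus IBMX; IC50 by non-linear regression.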

PDE5A1 = target: T2, PDE5A1 (Homo sapiens, UniProt O76074); test: Inhibition of type 5 phosphodiesterase (PDE5) activity, modified SPA test with human platelet lysate; type: biochemical; conditions: 0.5 μM cGMP, read-out: PDE5A1 inhibitory values [measured as −log IC50 (mol/l)] (converted)
T2 construct: from tissue; host or cells: human platelets from fresh donor blood (10,000 x g supernatant of sonicated lysate)
Method in brief: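 Scintillation proximity assay with [3H]cGMP tracer at 0.5 μM total cGMP, stopped after 15 min with beads containing IBMX. PDE3 and PDE2 activities suppressed with motapizone (1 μM) and a PDE2 inhibitor (10 nM). Human platelet supernatant served as the enzyme, with compound preincubated 5 min at 37° C; IC50 values from concentration-effect curves.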

Row | SMILES | IC50 (PDE4B1) [nM] | IC50 (PDE5A1) [nM]
1 | CCOC(=O)N[C@H]1CC[C@H](NC(=O)c2c(C)[nH]c3c(-c4cc(F)ccc4OCC4CC4)ncnc23)CC1 [Example E44, Ethyl {trans-4-[({4-[2-(cyclopropylmethoxy)-5-fluorophenyl]-6-methyl-5H-pyrrolo[3,2-d]pyrimidin-7-yl}carbonyl)amino]cyclohexyl}carbamate] | < 100 | < 1
2 | CCC(=O)N1CCC(NC(=O)c2c(C)[nH]c3c(-c4cc(C(F)(F)F)ccc4OCC4CC4)ncnc23)CC1 [Example E91, 4-[2-(Cyclopropylmethoxy)-5-(trifluoromethyl)phenyl]-6-methyl-N-(1-propanoylpiperidin-4-yl)-5H-pyrrolo[3,2-d]pyrimidine-7-carboxamide] | < 100 | < 1
3 | CC(=O)N[C@H]1CC[C@H](NC(=O)c2c(C)[nH]c3c(-c4cc(C(C)C)ccc4OCC4CC4)ncnc23)CC1 [Example E159, N-[trans-4-(Acetylamino)cyclohexyl]-4-[2-(cyclopropylmethoxy)-5-(propan-2-yl)phenyl]-6-methyl-5H-pyrrolo[3,2-d]pyrimidine-7-carboxamide] | 100 to 1000 | < 1
4 | CC(=O)N1CCC(NC(=O)c2c(C)[nH]c3c(-c4cc(C)ccc4OCC4CC4)ncnc23)CC1 [Example E81, N-(1-Acetylpiperidin-4-yl)-4-[2-(cyclopropylmethoxy)-5-methylphenyl]-6-methyl-5H-pyrrolo[3,2-d]pyrimidine-7-carboxamide] | < 100 | < 1
5 | COCC(=O)N[C@H]1CC[C@@H](NC(=O)c2c(C)[nH]c3c(-c4cc(C)ccc4OCC4CC4)ncnc23)CC1 [Example E89, 4-[2-(Cyclopropylmethoxy)-5-methylphenyl]-N-{cis-4-[(methoxyacetyl)amino]cyclohexyl}-6-methyl-5H-pyrrolo[3,2-d]pyrimidine-7-carboxamide] | < 100 | < 1
6 | COCC(=O)N[C@H]1CC[C@H](NC(=O)c2c(C)[nH]c3c(-c4cc(C)ccc4OCC4CC4)ncnc23)CC1 [Example E86, 4-[2-(Cyclopropylmethoxy)-5-methylphenyl]-N-{trans-4-[(methoxyacetyl)amino]cyclohexyl}-6-methyl-5H-pyrrolo[3,2-d]pyrimidine-7-carboxamide] | < 100 | < 1
7 | CCc1ccc(OCC2CC2)c(-c2ncnc3c(C(=O)N[C@H]4CC[C@@H](NC(=O)COC)CC4)c(C)[nH]c23)c1 [Example E153, 4-[2-(Cyclopropylmethoxy)-5-ethylphenyl]-N-{cis-4-[(methoxyacetyl)amino]cyclohexyl}-6-methyl-5H-pyrrolo[3,2-d]pyrimidine-7-carboxamide] | 100 to 1000 | < 1
8 | CC(=O)N1CCC(NC(=O)c2c(C)[nH]c3c(-c4cc(C(F)(F)F)ccc4OCC4CC4)ncnc23)CC1 [Example E90, N-(1-Acetylpiperidin-4-yl)-4-[2-(cyclopropylmethoxy)-5-(trifluoromethyl)phenyl]-6-methyl-5H-pyrrolo[3,2-d]pyrimidine-7-carboxamide] | < 100 | < 1
9 | CC(=O)N[C@H]1CC[C@H](NC(=O)c2c(C)[nH]c3c(-c4cc(C)ccc4OCC4CC4)ncnc23)CC1 [Example E84, N-[trans-4-(acetylamino)cyclohexyl]-4-[2-(cyclopropylmethoxy)-5-methylphenyl]-6-methyl-5H-pyrrolo[3,2-d]pyrimidine-7-carboxamide] | < 100 | < 1
10 | CC(=O)N[C@H]1CC[C@@H](NC(=O)c2c(C)[nH]c3c(-c4cc(C(F)(F)F)ccc4OCC4CC4)ncnc23)CC1 [Example E96, N-[cis-4-(acetylamino)cyclohexyl]-4-[2-(cyclopropylmethoxy)-5-(trifluoromethyl)phenyl]-6-methyl-5H-pyrrolo[3,2-d]pyrimidine-7-carboxamide] | 100 to 1000 | < 1
11 | Cc1ccc(OCC2CC2)c(-c2ncnc3c(C(=O)N[C@@H]4CCC[C@H]4O)c(C)[nH]c23)c1 [Example E178, 4-[2-(Cyclopropylmethoxy)-5-methylphenyl]-N-[(1R,2R)-2-hydroxycyclopentyl]-6-methyl-5H-pyrrolo[3,2-d]pyrimidine-7-carboxamide] | 100 to 1000 | < 1
12 | COCC(=O)N[C@H]1CC[C@@H](NC(=O)c2c(C)[nH]c3c(-c4cc(OC)ccc4OCC4CC4)ncnc23)CC1 [Example E74, 4-[2-(Cyclopropylmethoxy)-5-methoxyphenyl]-N-{cis-4-[(methoxyacetyl)amino]cyclohexyl}-6-methyl-5H-pyrrolo[3,2-d]pyrimidine-7-carboxamide] | 100 to 1000 | < 1
13 | CC(=O)N[C@H]1CC[C@@H](NC(=O)c2c(C)[nH]c3c(-c4cc(C)ccc4OCC4CC4)ncnc23)CC1 [Example E87, N-[cis-4-(acetylamino)cyclohexyl]-4-[2-(cyclopropylmethoxy)-5-methylphenyl]-6-methyl-5H-pyrrolo[3,2-d]pyrimidine-7-carboxamide] | < 100 | < 1
14 | COCC(=O)N1CCC(NC(=O)c2c(C)[nH]c3c(-c4cc(C)ccc4OCC4CC4)ncnc23)CC1 [Example E83, 4-[2-(cyclopropylmethoxy)-5-methylphenyl]-N-[1-(methoxyacetyl)piperidin-4-yl]-6-methyl-5H-pyrrolo[3,2-d]pyrimidine-7-carboxamide] | < 100 | < 1
15 | CC(=O)N1CCC(NC(=O)c2c(C)[nH]c3c(-c4cc(F)ccc4OCC4CC4)ncnc23)CC1 [Example E37, 4-(2-Cyclopropylmethoxy-5-fluoro-phenyl)-6-methyl-5H-pyrrolo[3,2-d]pyrimidine-7-carboxylic acid (1-acetyl-piperidin-4-yl)-amide] | 100 to 1000 | < 1

The next lines start with the values.

Row | IC50 (PDE4B1) [nM] | IC50 (PDE5A1) [nM] | SMILES
16 | 100 to 1000 | < 1 | Cc1ccc(OCC2CC2)c(-c2nc(C)nc3c(C(=O)NC4CCN(C(=O)CO)CC4)c(C)[nH]c23)c1 [Example F106, 4-[2-(Cyclopropylmethoxy)-5-methylphenyl]-N-[1-(hydroxyacetyl)piperidin-4-yl]-2,6-dimethyl-5H-pyrrolo[3,2-d]pyrimidine-7-carboxamide]
17 | 100 to 1000 | < 1 | Cc1[nH]c2c(-c3cc(C(C)C)ccc3OCC3CC3)ncnc2c1C(=O)N[C@H]1CC[C@H](NC(=O)[C@H](C)O)CC1 [Example F100, 4-[2-(Cyclopropylmethoxy)-5-(propan-2-yl)phenyl]-N-(trans-4-{[(2S)-2-hydroxypropanoyl]amino}cyclohexyl)-6-methyl-5H-pyrrolo[3,2-d]pyrimidine-7-carboxamide]
18 | < 100 | < 1 | CCc1ccc(OCC2CC2)c(-c2ncnc3c(C(=O)N[C@H]4CC[C@H](NC(=O)CO)CC4)c(C)[nH]c23)c1 [Example F93, 4-[2-(Cyclopropylmethoxy)-5-ethylphenyl]-N-{trans-4-[(hydroxyacetyl)amino]cyclohexyl}-6-methyl-5H-pyrrolo[3,2-d]pyrimidine-7-carboxamide]
19 | < 100 | 1 to 10 | CCC(=O)N1C[C@@H](NC(=O)c2c(C)[nH]c3c(-c4cc(C(F)F)ccc4OCC4CC4)ncnc23)C[C@@H]1C [Example P25, 4-[2-(Cyclopropylmethoxy)-5-(difluoromethyl)phenyl]-6-methyl-N-[(3S,5S)-5-methyl-1-propanoylpyrrolidin-3-yl]-5H-pyrrolo[3,2-d]pyrimidine-7-carboxamide]
20 | < 100 | < 1 | Cc1ccc(OCC2CC2)c(-c2ncnc3c(C(=O)NC4CCN(C(=O)CO)CC4)c(C)[nH]c23)c1 [Example F51]
21 | < 100 | < 1 | COCC(=O)N[C@H]1CC[C@H](NC(=O)c2c(C)[nH]c3c(-c4cc(C(F)F)ccc4OCC4CC4)ncnc23)[C@H](F)C1 (relative stereo) [Example P171, 4-[2-(Cyclopropylmethoxy)-5-(difluoromethyl)phenyl]-N-{(1S*,2R*,4S*)-2-fluoro-4-[(methoxyacetyl)amino]cyclohexyl}-6-methyl-5H-pyrrolo[3,2-d]pyrimidine-7-carboxamide]
22 | < 100 | < 1 | COCC(=O)N[C@H]1CC[C@H](NC(=O)c2c(C)[nH]c3c(-c4cc(C(F)F)ccc4OCC4CC4)ncnc23)C[C@@H]1F (relative stereo) [Example P211, 4-[2-(Cyclopropylmethoxy)-5-(difluoromethyl)phenyl]-N-{(1S*,3S*,4S*)-3-fluoro-4-[(methoxyacetyl)amino]cyclohexyl}-6-methyl-5H-pyrrolo[3,2-d]pyrimidine-7-carboxamide]
23 | < 100 | < 1 | CCC(=O)N[C@H]1CC[C@H](NC(=O)c2c(C)[nH]c3c(-c4cc(C(F)F)ccc4OCC4CC4)ncnc23)[C@H](F)C1 (relative stereo) [Example P170, 4-[2-(Cyclopropylmethoxy)-5-(difluoromethyl)phenyl]-N-[(1S*,2R*,4S*)-2-fluoro-4-(propanoylamino)cyclohexyl]-6-methyl-5H-pyrrolo[3,2-d]pyrimidine-7-carboxamide]
24 | < 100 | < 1 | CCC(=O)N[C@@H]1CC[C@@H](NC(=O)c2c(C)[nH]c3c(-c4cc(C(F)F)ccc4OCC4CC4)ncnc23)[C@H](F)C1 (relative stereo) [Example P160, 4-[2-(Cyclopropylmethoxy)-5-(difluoromethyl)phenyl]-N-[(1R*,2R*,4R*)-2-fluoro-4-(propanoylamino)cyclohexyl]-6-methyl-5H-pyrrolo[3,2-d]pyrimidine-7-carboxamide]
